Experimental data reported in ChEMBL document CHEMBL1157118, “Cooperative binding of a quinoline derivative to an RNA stem loop containing a dangling end” (Bioorg Med Chem Lett, 2010).
Calls of active or inactive are those of the source. The calls are words filed in the database; no cut-off is given here.

Tests used:
Format in all cases: nucleic-acid assay
Nucleic Acid [1] = experiment: Binding affinity to 3'-dangling end of RNA1 by fluorescence spectroscopy analysis in presence of Triton X-100
Nucleic Acid [2] = experiment: Binding affinity to 3'-dangling end of RNA1 by fluorescence spectroscopy analysis in absence of Triton X-100
Nucleic Acid [3] = experiment: Binding affinity to 3'-dangling end of RNA1 ligand binding site 1 by isothermal titration calorimetry
Nucleic Acid [4] = experiment: Binding affinity to 3'-dangling end of RNA1 at 7.5 to 50 uM by CD spectroscopy
Nucleic Acid [5] = experiment: Binding affinity to 3'-dangling end of RNA1 by UV reverse titration method
Nucleic Acid [6] = experiment: Binding affinity to 3'-dangling end of RNA1 ligand binding site 2 by isothermal titration calorimetry
Nucleic Acid [7] = experiment: Binding affinity to 3'-dangling end of RNA1 ligand binding site 3 by isothermal titration calorimetry
Nucleic Acid [8] = experiment: Binding affinity to 3'-dangling end of RNA1 ligand binding site 4 by isothermal titration calorimetry

Kd (Nucleic Acid [1]): 12 µM | Kd (Nucleic Acid [2]): 8.2 µM | Kd (Nucleic Acid [3]): 10.8 µM | Activity (Nucleic Acid [4]): Active | Activity (Nucleic Acid [5]): Active | Kd (Nucleic Acid [6]): 9.2 µM | Kd (Nucleic Acid [7]): 8.1 µM | Kd (Nucleic Acid [8]): 12.5 µM
Compound: OC(CNc1ccnc2cc(Cl)ccc12)CNc1ccnc2cc(Cl)ccc12
